The target in the assay is mTOR/GbL/Raptor (mTORC1) (Homo sapiens, UniProt P42345). Nature of the assay: mTOR/GbL/Raptor (mTORC1) ELISA assay. The assay is classed as biochemical. The following applies: phosphorylation of 4E-BP1; 0.2 nM mTORC1, 10 μM ATP, 50 nM NHis-tagged 4E-BP1. The protocol: mTOR/GbL/Raptor (mTORC1) ELISA Assay
The measurement of mTORC1 enzyme activity was performed in an ELISA assay format following the phosphorylation of 4E-BP1 protein. All experiments were performed in the 384-well format. Generally, 0.5 μL DMSO containing varying concentrations of the test compound was mixed with 15 μL enzyme solution. Kinase reactions were initiated with the addition of 15 μL of substrates-containing solution. The assay conditions were as follows; 0.2 nM mTORC1, 10 μM ATP and 50 nM NHis-tagged 4E-BP1 in 20 mM Hepes, pH 7.2, 1 mM DTT, 50 mM NaCl, 10 mM MnCl2, 0.02 mg/mL BSA, 0.01% CHAPS, 50 mM β-glycerophosphate. Following an incubation of 120 minutes at ambient temperature, 20 μL of the reaction volume was transferred to a Ni-Chelate-coated 384-well plate. The binding step of the 4E-BP1 protein proceeded for 60 minutes, followed by washing 4 times each with 50 μL of Tris-buffered saline solution (TBS). Anti-phospho-4E-BP1 rabbit-IgG (20 μL, 1:5000) in 5% BSA-TBST (0.2% Tween-20 in TBS) was added and further incubated for 60 minutes. Incubation with a secondary HRP-tagged anti-IgG was similarly performed after washing off the primary antibody (4 washes of 50 μL). Following the final wash step with TBST, 20 μL of SuperSignal ELISA Femto (Pierce Biotechnology) was added and the luminescence measured using an EnVision plate reader.
On the technique in general: In an ELISA, binding on a coated surface is turned into a signal by an enzyme label.

Molecule `COc1ccc(-c2ccc3c(c2)CN(c2nc(CN(C)C)nc4c2CC(C)(C)CC4)CCO3)cc1C(C)=O` [Compound 18, 1-[5-(4-{2-[(dimethylamino)methyl]-6,6-dimethyl-5,6,7,8-tetrahydroquinazolin-4-yl}-2,3,4,5-tetrahydro-1,4-benzoxazepin-7-yl)-2-(methyloxy)phenyl]ethanone] showed a 50% inhibitory concentration (IC50) of 100 to 500 nM.

Regarding `COC(=O)Nc1nc2cc(-c3ccc4c(c3)CN(c3nc(N)nc(C)c3C(C)C)CCO4)ccc2[nH]1` [Compound 17, methyl (5-{4-[2-amino-6-methyl-5-(1-methylethyl)pyrimidin-4-yl]-2,3,4,5-tetrahydro-1,4-benzoxazepin-7-yl}-1H-benzimidazol-2-yl)carbamate], the IC50 is ≤ 100 nM. In the case of `CCNc1nc2cc(-c3ccc4c(c3)CN(c3nc(N)nc(C)c3C(C)C)CCO4)ccc2[nH]1` [Compound 42, 5-{4-[2-amino-6-methyl-5-(1-methylethyl)pyrimidin-4-yl]-2,3,4,5-tetrahydro-1,4-benzoxazepin-7-yl}-N-ethyl-1H-benzimidazol-2-amine], the IC50 is ≤ 100 nM. `COCCOc1cc(-c2ccc3c(c2)CN(c2nc(CN(C)C)nc4c2CC(C)(C)CC4)CCO3)ccc1OC` [Compound 7, 1-(6,6-dimethyl-4-{7-[4-(methyloxy)-3-{[2-(methyloxy)ethyl]oxy}phenyl]-2,3-dihydro-1,4-benzoxazepin-4(5H)-yl}-5,6,7,8-tetrahydroquinazolin-2-yl)-N,N-dimethylmethanamine] gave a concentration for half-maximal inhibition (IC50) of 100 to 500 nM.

Turning to `COc1ccc2c(N3CCOc4ccc(-c5ccc6[nH]cnc6c5)cc4C3)nc(CN(C)C)nc2c1` [Compound 37, 1-{4-[7-(1H-benzimidazol-5-yl)-2,3-dihydro-1,4-benzoxazepin-4(5H)-yl]-7-(methyloxy)quinazolin-2-yl}-N,N-dimethylmethanamine], the IC50 lay in the range of 500 to 2500 nM. Consider `C=CCc1c(C)nc(CN(C)C)nc1N1CCOc2ccc(-c3ccc4nc(C)[nH]c4c3)cc2C1` [Compound 33, N,N-dimethyl-1-{4-methyl-6-[7-(2-methyl-1H-benzimidazol-6-yl)-2,3-dihydro-1,4-benzoxazepin-4(5H)-yl]-5-prop-2-en-1-ylpyrimidin-2-yl}methanamine], for which the half-inhibitory concentration (IC50) is ≤ 100 nM.

As for `Cc1nc2cc(-c3ccc4c(c3)CN(c3nc(CN(C)C)nc(C)c3Br)CCO4)ccc2[nH]1` [Compound 30, 1-{5-bromo-4-methyl-6-[7-(2-methyl-1H-benzimidazol-5-yl)-2,3-dihydro-1,4-benzoxazepin-4(5H)-yl]pyrimidin-2-yl}-N,N-dimethylmethanamine], the IC50 was 500 to 2500 nM. In the case of `CCCc1c(C)nc(CN(C)C)nc1N1CCOc2ccc(-c3ccc4nc(C)[nH]c4c3)cc2C1` [Compound 32, N,N-dimethyl-1-{4-methyl-6-[7-(2-methyl-1H-benzimidazol-6-yl)-2,3-dihydro-1,4-benzoxazepin-4(5H)-yl]-5-propylpyrimidin-2-yl}methanamine], the half-inhibitory concentration (IC50) fell in the range of 500 to 2500 nM.

`COc1ccc(-c2ccc3c(c2)CN(c2nc(CN(C)C)nc4c2CC(C)(C)CC4)CCO3)cc1OC(F)F` [Compound 8, 1-{4-[7-{3-[(difluoromethyl)oxy]-4-(methyloxy)phenyl}-2,3-dihydro-1,4-benzoxazepin-4(5H)-yl]-6,6-dimethyl-5,6,7,8-tetrahydroquinazolin-2-yl}-N,N-dimethylmethanamine]: the IC50 was in the range of 100 to 500 nM. Then `Cc1nc2cc(-c3ccc4c(c3)CN(c3nc(N)nc(C)c3Cc3ccc(F)cc3)CCO4)cnc2[nH]1` [Compound 48, 5-[(4-fluorophenyl)methyl]-4-methyl-6-[7-(2-methyl-3H-imidazo[4,5-b]pyridin-6-yl)-2,3-dihydro-1,4-benzoxazepin-4(5H)-yl]pyrimidin-2-amine], with ≤ 100 nM; and `Cc1nc2cc(-c3ccc4c(c3)CN(c3nc(NCCCN(C)C)nc(C)c3Cc3ccc(F)cc3)CCO4)ccc2[nH]1` [Compound 13, N′-{5-[(4-fluorophenyl)methyl]-4-methyl-6-[7-(2-methyl-1H-benzimidazol-5-yl)-2,3-dihydro-1,4-benzoxazepin-4(5H)-yl]pyrimidin-2-yl}-N,N-dimethylpropane-1,3-diamine], with ≤ 100 nM; and `COc1ccc2c(N3CCOc4ccc(-c5ccc6[nH]c(C)nc6c5)cc4C3)nc(CN(C)C)nc2c1` [Compound 38, N,N-dimethyl-1-{4-[7-(2-methyl-1H-benzimidazol-5-yl)-2,3-dihydro-1,4-benzoxazepin-4(5H)-yl]-7-(methyloxy)quinazolin-2-yl}methanamine], with 500 to 2500 nM.

As to `Cc1nc2cc(-c3ccc4c(c3)CN(c3cc(N)ncc3C#N)CCO4)ccc2[nH]1` [Compound 28, 6-amino-4-[7-(2-methyl-1H-benzimidazol-5-yl)-2,3-dihydro-1,4-benzoxazepin-4(5H)-yl]pyridine-3-carbonitrile], the IC50 was ≤ 100 nM.

As for `CC(=O)OCc1nc(C)c(C(C)C)c(N2CCOc3ccc(-c4ccc5nc(C)[nH]c5c4)cc3C2)n1` [Compound 4, {4-methyl-6-[7-(2-methyl-1H-benzimidazol-5-yl)-2,3-dihydro-1,4-benzoxazepin-4(5H)-yl]-5-(1-methylethyl)pyrimidin-2-yl}methyl acetate], the IC50 was ≤ 100 nM. Molecule `COc1ccc(-c2ccc3c(c2)CN(c2nc(CN(C)C)nc(C)c2C(C)C)CCO3)cc1NS(C)(=O)=O` [Compound 10] yielded a 50% inhibitory concentration (IC50) of 100 to 500 nM. For the molecule `Cc1nc2cc(-c3ccc4c(c3)CN(c3nc(CN(C)C)nc(C)c3-c3ccccc3)CCO4)ccc2[nH]1` [Compound 21, N,N-dimethyl-1-{4-methyl-6-[7-(2-methyl-1H-benzimidazol-5-yl)-2,3-dihydro-1,4-benzoxazepin-4(5H)-yl]-5-phenylpyrimidin-2-yl}methanamine], the 50% inhibitory concentration (IC50) lay in the range of 100 to 500 nM. As to `Cc1nc2cc(-c3ccc4c(c3)CN(c3nc(CN(C)C)nc(C)c3CC(C)C)CCO4)ccc2[nH]1` [Compound 23, N,N-dimethyl-1-{4-methyl-6-[7-(2-methyl-1H-benzimidazol-5-yl)-2,3-dihydro-1,4-benzoxazepin-4(5H)-yl]-5-(2-methylpropyl)pyrimidin-2-yl}methanamine], the IC50 lay in the range of 100 to 500 nM. `Cc1nc2cc(-c3ccc4c(c3)CN(c3nc(CN(C)C)nc(C)c3CCCF)CCO4)ccc2[nH]1` [Compound 22, 1-{5-(3-fluoropropyl)-4-methyl-6-[7-(2-methyl-1H-benzimidazol-5-yl)-2,3-dihydro-1,4-benzoxazepin-4(5H)-yl]pyrimidin-2-yl}-N,N-dimethylmethanamine] registered a half-inhibitory concentration (IC50) of 500 to 2500 nM. In the case of `Cc1nc2cc(-c3ccc4c(c3)CN(c3nc(CF)nc5c3CC(C)(C)CC5)CCO4)ccc2[nH]1` [Compound 25, 4-[2-(fluoromethyl)-6,6-dimethyl-5,6,7,8-tetrahydroquinazolin-4-yl]-7-(2-methyl-1H-benzimidazol-5-yl)-2,3,4,5-tetrahydro-1,4-benzoxazepine], the IC50 is ≤ 100 nM. Then `Cc1nc2cc(-c3ccc4c(c3)CN(c3nc(CNCCF)nc(C)c3C(C)C)CCO4)ccc2[nH]1` [Compound 34, 2-fluoro-N-({4-methyl-6-[7-(2-methyl-1H-benzimidazol-5-yl)-2,3-dihydro-1,4-benzoxazepin-4(5H)-yl]-5-(1-methylethyl)pyrimidin-2-yl}methyl)ethanamine], with ≤ 100 nM; and `Cc1nc(N)nc(N2CCOc3ccc(-c4ccc5[nH]cnc5c4)cc3C2)c1C(C)C` [Compound 40, 4-[7-(1H-benzimidazol-5-yl)-2,3-dihydro-1,4-benzoxazepin-4(5H)-yl]-6-methyl-5-(1-methylethyl)pyrimidin-2-amine], with ≤ 100 nM.

In the case of `CC1(C)CCc2nc(N)nc(N3CCOc4ccc(-c5cnc6[nH]cnc6c5)cc4C3)c2C1` [Compound 45, 4-[7-(3H-imidazo[4,5-b]pyridin-6-yl)-2,3-dihydro-1,4-benzoxazepin-4(5H)-yl]-6,6-dimethyl-5,6,7,8-tetrahydroquinazolin-2-amine], the IC50 is ≤ 100 nM.

For the molecule `Cc1nc2ncc(-c3ccc4c(c3)CN(c3nc(N)nc5c3CC(C)(C)CC5)CCO4)cc2[nH]1` [Compound 44, 6,6-dimethyl-4-[7-(2-methyl-1H-imidazo[4,5-b]pyridin-6-yl)-2,3-dihydro-1,4-benzoxazepin-4(5H)-yl]-5,6,7,8-tetrahydroquinazolin-2-amine], the 50% inhibitory concentration (IC50) was ≤ 100 nM. Then `Cc1nc2cc(-c3ccc4c(c3)CN(c3nc(N)nc(C)c3Cc3ccc(F)cc3)CCO4)ccc2[nH]1` [Compound 39, 5-[(4-fluorophenyl)methyl]-4-methyl-6-[7-(2-methyl-1H-benzimidazol-5-yl)-2,3-dihydro-1,4-benzoxazepin-4(5H)-yl]pyrimidin-2-amine], with ≤ 100 nM; and `CC1(C)CCc2nc(N)nc(N3CCOc4ccc(-c5ccc6[nH]cnc6c5)cc4C3)c2C1` [Compound 27, 4-[7-(1H-benzimidazol-5-yl)-2,3-dihydro-1,4-benzoxazepin-4(5H)-yl]-6,6-dimethyl-5,6,7,8-tetrahydroquinazolin-2-amine], with ≤ 100 nM.

For orientation: IC50 means the concentration needed to halve the response being measured. Higher therefore signals weaker potency in that assay.

The values are drawn from US20140073628A1, “BENZOXAZEPINES ASN INHIBITORS OF P13K/M TOR AND METHODS OF THEIR USE AND MANUFACTURE” (priority 2010, published 2014).
